From publication PMC7616463, “Peptidic boronic acid Plasmodium falciparum SUB1 inhibitors with improved selectivity over human proteasome” (Journal of medicinal chemistry, 2024)

Columns and labels:
[1] = target: T1, recombinant PfSUB1 (rPfSUB1) (Plasmodium falciparum, UniProt Q8I0V0); test: PfSUB1 enzyme assay (recombinant PfSUB1, fluorogenic peptide substrate); format: biochemical; conditions: for IC50: rPfSUB1, substrate SERA4st1F-6R12 0.1 μM, 5 min preincubation, pH 8.2, fluorescence, duplicate, read-out: IC50, nM PfSUB1 inhibition; for inhibition of rPfSUB1 activity at 1 μM: 1 μM final concentration, typical of duplicate assays
T1 construct: made in house
Experimental: The proteolytic activity of rPfSUB1 was monitored by the cleavage of the fluorogenic peptidic substrate SERA4st1F-6R12 (Ac-[…]-OH) and has been described previously.[28] Briefly, chymotrypsin treated rPfSUB1 (expressed and purified as described before […] was stored at −80 °C as a 228 U/mL stock in 20 mM Tris−HCl pH 8.2, 150 mM NaCl, 10% glycerol, and diluted for use (1:500) in reaction buffer (20 mM Tris−HCl pH 8.2, 150 mM NaCl, 12 mM CaCl2, 25 mM CHAPS). Peptidic boronic acid inhibitors were dissolved in 100% DMSO at 20 mM, then further diluted in DMSO to generate stock solutions ranging from 500 to 0.01 μM and then used diluted 1:100 in the enzyme reactions. All reactions were performed in wells of white 96-well microwell plates (Nunc); 50 μL diluted rPfSUB1 was preincubated for 5 min with 1 μL each of the serially diluted boronic acid inhibitors, followed by addition of 50 μL substrate solution (0.1 μM final). Subsequent fluorescence increase was continuously monitored using a SpectraMax M5e plate reader and SoftMax Pro-6.3 software, with readings taken every 3 min for 60 min using excitation and emission values of 552 and 580 nm, respectively. […] All experiments were performed in duplicate.

[2] = target: T2, human 20S proteasome (H20S), chymotrypsin-like β5 activity (Homo sapiens, UniProt P20618+P28074); test: Human 20S proteasome kinetic assay (chymotrypsin-like β5 activity); format: biochemical; conditions: purified human 20S proteasome, β5 activity, substrate LLVY-R110, fluorescence; duplicate; read-out: IC50, nM H20S inhibition
T2 construct: variant as stated: H20S
Experimental: The fluorescent Proteasome substrate LLVY-R110 (ex: 490 nm, Em:525 nm) (#MAK172, Sigma-Aldrich) was used to measure the chymotrypsin-like activity (β5) of the human 20S proteasome and was prepared according to the activity assay kit instructions. Cleavage of this peptide generated intense green fluorescence due to the R110 group and was monitored at 520-530 nm with excitation at 480-500 nm. The purified human 20S proteasome (BML-PW8720-0050, EnzoSciences), stored at 1mg/ml in 20 mM Tris-HCl pH 7.2, 1mM EDTA, 1mM DTT 1mM NaN3, 50% glycerol was diluted in TRIS-buffered saline (TBS, pH 7.4) to an intermediate concentration of 0.44 μM. […] The reactions were performed in white 96-well fluorescent microtiter-plate format (Nunc). The Substrate solution was added first (100 μl), followed by 1 μl of the inhibitor (50 μM intermediate stock) and 1 μl of the H20S proteasome at 0.44 μM. The IC50s were determined for a selection of potent PfSUB1 inhibitors. After sequential dilution of the inhibitors in 100% DMSO, 1 μl of each dilution was used in a 100 μl reaction containing the fluorescent substrate. The reaction was initiated by the addition of 1 μl of the 20S proteasome intermediate stock solution. The fluorescence increase was monitored using a SpectraMax M5e plate reader and SoftMax Pro-6.3 software Measure activity on a plate reader (ex: 490 nm, Em: 525 nm) with the photomultiplier tube (PMT) set to medium with readings every 3 min for one hour. All measurements were done in duplicate. The progress curves were plotted within GraphPad Prism 9.5.0.

T1 sequence (Q8I0V0 218-688): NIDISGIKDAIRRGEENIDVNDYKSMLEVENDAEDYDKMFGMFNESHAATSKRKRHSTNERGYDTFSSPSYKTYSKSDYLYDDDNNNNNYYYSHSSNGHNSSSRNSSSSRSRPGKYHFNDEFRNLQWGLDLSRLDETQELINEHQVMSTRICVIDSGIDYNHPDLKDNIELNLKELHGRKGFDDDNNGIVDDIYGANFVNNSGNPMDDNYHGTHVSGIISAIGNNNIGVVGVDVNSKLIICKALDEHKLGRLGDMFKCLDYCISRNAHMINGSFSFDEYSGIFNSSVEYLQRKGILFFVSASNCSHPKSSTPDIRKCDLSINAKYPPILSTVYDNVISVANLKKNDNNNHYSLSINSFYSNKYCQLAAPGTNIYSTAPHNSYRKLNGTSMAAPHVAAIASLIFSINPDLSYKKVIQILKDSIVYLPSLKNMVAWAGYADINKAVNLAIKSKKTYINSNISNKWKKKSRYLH

Compound | IC50 [1] [nM] | further results
CC(=O)N[C@H](C(=O)N[C@H](C(=O)NCC(=O)N[C@@H](C)B(O)O)C(C)(C)C)C1CCCC1 [2a, ((2R,8S,11S)-8-(tert-butyl)-11-cyclopentyl-4,7,10,13-tetraoxo-3,6,9,12-tetraazatetradecan-2-yl)boronic acid] | 2.1 ± 0.1 | 
CC[C@H](C)[C@H](NC(=O)[C@@H](NCc1ccccn1)C1CCCC1)C(=O)NCC(=O)N[C@@H](C)B(O)O [3j, ((3S,6S,12R)-6-((S)-sec-butyl)-3-cyclopentyl-4,7,10-trioxo-1-(pyridin-2-yl)-2,5,8,11-tetraazatridecan-12-yl)boronic acid] | 71 ± 6.8 | 
CC[C@H](C)[C@H](NC(=O)[C@@H](NC(=O)c1ccc2ccccc2n1)C1CCCC1)C(=O)NCC(=O)N[C@@H](C)B(O)O [3a, ((3S,6S,12R)-6-((S)-sec-butyl)-3-cyclopentyl-1,4,7,10-tetraoxo-1-(quinolin-2-yl)-2,5,8,11-tetraazatridecan-12-yl)boronic acid] | 9.5 ± 0.6 | IC50 [2]: 6 ± 0.5 nM
CC[C@H](C)[C@H](NC(=O)[C@@H](NC(C)=O)C1CCCC1)C(=O)NCC(=O)N[C@@H](C)B(O)O [2f, ((2R,8S,11S)-8-((S)-sec-butyl)-11-cyclopentyl-4,7,10,13-tetraoxo-3,6,9,12-tetraaza-tetradecan-2-yl)boronic acid] | 5.4 ± 0.1 | 
CC[C@H](C)[C@H](NC(=O)[C@@H](NC(=O)C1CCC1)C1CCCC1)C(=O)NCC(=O)N[C@@H](C)B(O)O [3g, ((3S,6S,12R)-6-((S)-sec-butyl)-1-cyclobutyl-3-cyclopentyl-1,4,7,10-tetraoxo-2,5,8,11-tetraazatridecan-12-yl)boronic acid] | 2 ± 0.1 | 
CC(=O)N[C@H](C(=O)N[C@H](C(=O)NCC(=O)N[C@@H](C)B(O)O)[C@@H](C)O)C1CCCC1 [1b] |  | IC50 [2]: 35.4 ± 1.7 nM
CC(C)C[C@H](NC(=O)[C@H](Cc1ccccc1)NC(=O)c1cnccn1)B(O)O [5a, bortezomib, reference compound] |  | inhibition of rPfSUB1 activity at 1 μM [1]: Non inhibitory^b; inhibition of rPfSUB1 activity at 1 μM ([1]; listed as bortezomib): lack of inhibition
CC[C@H](C)[C@H](NC(=O)[C@@H](NC(=O)c1cc(C)cc(C)c1)C1CCCC1)C(=O)NCC(=O)N[C@@H](C)B(O)O [3c, ((3S,6S,12R)-6-((S)-sec-butyl)-3-cyclopentyl-1-(3,5-dimethylphenyl)-1,4,7,10-tetra-oxo-2,5,8,11-tetraazatridecan-12-yl)boronic acid] | 6.9 ± 0.3 | 
CC(=O)N[C@H](C(=O)N[C@@H](CC(C)C)C(=O)NCC(=O)N[C@@H](C)B(O)O)C1CCCC1 [2g, ((2R,8S,11S)-11-cyclopentyl-8-isobutyl-4,7,10,13-tetraoxo-3,6,9,12-tetraazatetra-decan-2-yl)boronic acid] | 7.8 ± 0.1 | 
CC[C@H](C)[C@H](NC(=O)[C@@H](NC(=O)c1cccc(-c2ccccc2)n1)C1CCCC1)C(=O)NCC(=O)N[C@H]1CCC(=O)OB1O [4b, N-((S)-1-cyclopentyl-2-(((2S,3S)-1-((2-(((R)-2-hydroxy-6-oxo-1,2-oxaborinan-3-yl)amino)-2-oxoethyl)amino)-3-methyl-1-oxopentan-2-yl)amino)-2-oxoethyl)-6-phenylpicolinamide] | 13 ± 0.6 | IC50 [2]: 160 ± 10 nM
CC[C@H](C)[C@H](NC(=O)[C@@H](NS(=O)(=O)c1nccs1)C1CCCC1)C(=O)NCC(=O)N[C@@H](C)B(O)O [3h, ((R)-1-(2-((2S,3S)-2-((S)-2-cyclopentyl-2-(thiazole-2-sulfonamido)acetamido)-3-methylpentanamido)acetamido)ethyl)boronic acid] | 3.4 ± 0.3 | 
CC(=O)N[C@H](C(=O)N[C@@H](Cc1ccccc1)C(=O)NCC(=O)N[C@@H](C)B(O)O)C1CCCC1 [2h, ((2R,8S,11S)-8-benzyl-11-cyclopentyl-4,7,10,13-tetraoxo-3,6,9,12-tetraazatetradecan-2-yl)boronic acid] | 6.9 ± 2.6 | 
CC[C@H](C)[C@H](NC(=O)[C@@H](NCc1ccccc1)C1CCCC1)C(=O)NCC(=O)N[C@@H](C)B(O)O [3i, ((3S,6S,12R)-6-((S)-sec-butyl)-3-cyclopentyl-4,7,10-trioxo-1-phenyl-2,5,8,11-tetra-azatridecan-12-yl)boronic acid] | 23.2 ± 0.3 | 
CC[C@H](C)[C@H](NC(=O)[C@@H](NC(=O)c1ccc2ccccc2n1)C1CCCC1)C(=O)NCC(=O)N[C@H]1CCC(=O)OB1O [4a, N-((S)-1-cyclopentyl-2-(((2S,3S)-1-((2-(((R)-2-hydroxy-6-oxo-1,2-oxaborinan-3-yl)amino)-2-oxoethyl)amino)-3-methyl-1-oxopentan-2-yl)amino)-2-oxoethyl) quinoline-2-carboxamide] | 36.1 ± 2.4 | IC50 [2]: 410 ± 5 nM
CC[C@H](C)[C@H](NC(=O)[C@@H](NC(=O)C(C)(C)C)C1CCCC1)C(=O)NCC(=O)N[C@@H](C)B(O)O [3f, ((2R,8S,11S)-8-((S)-sec-butyl)-11-cyclopentyl-14,14-dimethyl-4,7,10,13-tetraoxo-3,6,9,12-tetraazapentadecan-2-yl)boronic acid] | 3.9 ± 0.3 | 
CC(C)C[C@H](NC(=O)[C@H](CCc1ccccc1)NC(=O)CN1CCOCC1)C(=O)N[C@@H](Cc1ccccc1)C(=O)N[C@@H](CC(C)C)C(=O)[C@@]1(C)CO1 [carfilzomib, reference compound] |  | inhibition of rPfSUB1 activity at 1 μM [1]: lack of inhibition
CC(=O)N[C@H](C(=O)N[C@@H](CC1CCCCC1)C(=O)NCC(=O)N[C@@H](C)B(O)O)C1CCCC1 [2d, ((2R,8S,11S)-8-(cyclohexylmethyl)-11-cyclopentyl-4,7,10,13-tetraoxo-3,6,9,12-tetra-azatetradecan-2-yl)boronic acid] | 6.7 ± 0.3 | 
CC[C@H](C)[C@H](NC(=O)[C@@H](NC(=O)C(C)C)C1CCCC1)C(=O)NCC(=O)N[C@@H](C)B(O)O [3e, ((2R,8S,11S)-8-((S)-sec-butyl)-11-cyclopentyl-14-methyl-4,7,10,13-tetraoxo-3,6,9,12-tetraazapentadecan-2-yl)boronic acid] | 3.9 ± 0.3 | 
((3S,6S,12R)-6-((S)-sec-butyl)-3-cyclopentyl-1-(3,5-dimethylphenyl)-1,4,7,10-tetra-oxo-2,5,8,11-tetraazatridecan-12-yl)boronic acid [3d] | 3.2 ± 0.1 | 
CC(=O)N[C@H](C(=O)N[C@@H](CC(C)(C)C)C(=O)NCC(=O)N[C@@H](C)B(O)O)C1CCCC1 [2e, ((2R,8S,11S)-11-cyclopentyl-8-neopentyl-4,7,10,13-tetraoxo-3,6,9,12-tetraazatetra-decan-2-yl)boronic acid] | 43.5 ± 2.7 | fold decreased PfSUB1 potency compared to homologue 2a ([1]; rPfSUB1 IC50 vs 2a): ~ 20 fold
CC(=O)N[C@H](C(=O)N[C@@H](CC1CCCC1)C(=O)NCC(=O)N[C@@H](C)B(O)O)C1CCCC1 [2c, ((2R,8S,11S)-11-cyclopentyl-8-(cyclopentylmethyl)-4,7,10,13-tetraoxo-3,6,9,12-tetra-azatetradecan-2-yl)boronic acid] | 7.5 ± 0.8 | 
CC(=O)N[C@H](C(=O)N[C@H](C(=O)NCC(=O)N[C@@H](C)B(O)O)c1ccccc1)C1CCCC1 [2b, ((2R,8S,11S)-11-cyclopentyl-4,7,10,13-tetraoxo-8-phenyl-3,6,9,12-tetraazatetradecan-2-yl)boronic acid] | 2.8 ± 0.1 | 
CC(C)C[C@H](NC(=O)CNC(=O)c1cc(Cl)ccc1Cl)B(O)O [ixazomib, reference compound] |  | inhibition of rPfSUB1 activity at 1 μM [1]: lack of inhibition
CC[C@H](C)[C@H](NC(=O)[C@@H](NC(=O)c1cccc(-c2ccccc2)n1)C1CCCC1)C(=O)NCC(=O)N[C@@H](C)B(O)O [3b, ((3S,6S,12R)-6-((S)-sec-butyl)-3-cyclopentyl-1,4,7,10-tetraoxo-1-(6-phenylpyridin-2-yl)-2,5,8,11-tetraazatridecan-12-yl)boronic acid] | 9.3 ± 0.2 | IC50 [2]: 7 ± 0.1 nM
